From ChEMBL document CHEMBL5291721, “A preclinical secondary pharmacology resource illuminates target-adverse drug reaction associations of marketed drugs” (Nat Commun, 2023)

How the values were obtained:
[1] = target: T1, Muscarinic acetylcholine receptor M2 (Homo sapiens, UniProt P08172)
T1 sequence (P08172 whole entry): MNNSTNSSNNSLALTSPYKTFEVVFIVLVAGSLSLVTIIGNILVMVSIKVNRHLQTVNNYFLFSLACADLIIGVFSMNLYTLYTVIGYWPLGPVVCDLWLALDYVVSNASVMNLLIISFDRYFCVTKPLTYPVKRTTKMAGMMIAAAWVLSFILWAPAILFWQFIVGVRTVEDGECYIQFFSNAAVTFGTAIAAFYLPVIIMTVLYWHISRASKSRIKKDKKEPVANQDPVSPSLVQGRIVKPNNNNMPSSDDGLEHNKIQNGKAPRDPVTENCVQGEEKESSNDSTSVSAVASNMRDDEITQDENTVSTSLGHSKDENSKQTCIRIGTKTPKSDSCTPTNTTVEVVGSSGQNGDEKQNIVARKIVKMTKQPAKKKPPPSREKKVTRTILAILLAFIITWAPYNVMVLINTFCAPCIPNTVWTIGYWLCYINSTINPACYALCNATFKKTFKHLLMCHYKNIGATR

[2] = target: T2, Estrogen receptor (Homo sapiens, UniProt P03372)
T2 sequence (P03372 whole entry): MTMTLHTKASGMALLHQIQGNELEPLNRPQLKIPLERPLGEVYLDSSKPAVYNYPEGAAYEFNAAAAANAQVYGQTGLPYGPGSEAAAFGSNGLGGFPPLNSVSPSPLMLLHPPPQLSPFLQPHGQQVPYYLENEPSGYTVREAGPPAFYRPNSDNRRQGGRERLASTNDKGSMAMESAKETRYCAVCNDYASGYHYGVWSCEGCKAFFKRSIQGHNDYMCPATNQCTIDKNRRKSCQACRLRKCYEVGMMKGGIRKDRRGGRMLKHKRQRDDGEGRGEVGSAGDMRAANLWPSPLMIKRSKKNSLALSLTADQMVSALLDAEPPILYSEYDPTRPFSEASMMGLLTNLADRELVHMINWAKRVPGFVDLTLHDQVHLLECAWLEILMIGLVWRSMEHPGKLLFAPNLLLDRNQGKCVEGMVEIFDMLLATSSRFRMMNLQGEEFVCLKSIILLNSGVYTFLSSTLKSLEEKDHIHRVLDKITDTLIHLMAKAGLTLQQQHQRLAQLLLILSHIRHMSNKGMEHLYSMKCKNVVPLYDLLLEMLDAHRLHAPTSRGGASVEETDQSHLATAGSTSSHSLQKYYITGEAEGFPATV

[3] = target: Vascular endothelial growth factor receptor 2 (Homo sapiens, UniProt P35968); assay type: functional
[4] = target: 3',5'-cyclic-AMP phosphodiesterase 4A (Homo sapiens, UniProt P27815); assay type: functional
[5] = target: T3, Progesterone receptor (Homo sapiens, UniProt P06401)
T3 sequence (P06401 whole entry): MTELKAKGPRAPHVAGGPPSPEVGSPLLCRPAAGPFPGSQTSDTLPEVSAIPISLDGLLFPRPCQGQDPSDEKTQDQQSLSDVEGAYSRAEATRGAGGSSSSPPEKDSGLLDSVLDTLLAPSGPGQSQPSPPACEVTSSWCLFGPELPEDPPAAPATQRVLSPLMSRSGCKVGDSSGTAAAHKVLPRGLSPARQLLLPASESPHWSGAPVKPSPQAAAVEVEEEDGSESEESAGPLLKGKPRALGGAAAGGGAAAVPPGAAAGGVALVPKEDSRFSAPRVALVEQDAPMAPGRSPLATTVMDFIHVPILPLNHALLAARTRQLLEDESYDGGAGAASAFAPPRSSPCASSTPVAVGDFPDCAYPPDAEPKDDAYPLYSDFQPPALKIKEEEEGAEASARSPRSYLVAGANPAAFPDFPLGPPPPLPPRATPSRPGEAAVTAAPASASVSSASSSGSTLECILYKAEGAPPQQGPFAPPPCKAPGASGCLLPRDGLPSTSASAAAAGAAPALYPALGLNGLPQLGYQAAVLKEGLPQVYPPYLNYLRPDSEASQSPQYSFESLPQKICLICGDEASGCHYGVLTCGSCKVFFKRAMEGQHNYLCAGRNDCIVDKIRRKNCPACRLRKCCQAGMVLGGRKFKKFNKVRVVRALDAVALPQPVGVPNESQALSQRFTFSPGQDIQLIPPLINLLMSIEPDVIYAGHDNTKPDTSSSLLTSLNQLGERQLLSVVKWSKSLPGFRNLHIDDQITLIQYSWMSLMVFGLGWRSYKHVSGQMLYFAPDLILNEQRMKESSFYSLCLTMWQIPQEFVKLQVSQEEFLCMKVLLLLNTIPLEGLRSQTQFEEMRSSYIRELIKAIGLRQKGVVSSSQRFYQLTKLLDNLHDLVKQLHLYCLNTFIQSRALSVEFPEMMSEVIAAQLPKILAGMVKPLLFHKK

[6] = target: Prostaglandin G/H synthase 1 (Homo sapiens, UniProt P23219); assay type: functional
[7] = target: Sodium-dependent noradrenaline transporter (Homo sapiens, UniProt P23975)
[8] = target: T4, Thromboxane A2 receptor (Homo sapiens, UniProt P21731); assay type: functional, cell-based
T4 sequence (P21731 whole entry): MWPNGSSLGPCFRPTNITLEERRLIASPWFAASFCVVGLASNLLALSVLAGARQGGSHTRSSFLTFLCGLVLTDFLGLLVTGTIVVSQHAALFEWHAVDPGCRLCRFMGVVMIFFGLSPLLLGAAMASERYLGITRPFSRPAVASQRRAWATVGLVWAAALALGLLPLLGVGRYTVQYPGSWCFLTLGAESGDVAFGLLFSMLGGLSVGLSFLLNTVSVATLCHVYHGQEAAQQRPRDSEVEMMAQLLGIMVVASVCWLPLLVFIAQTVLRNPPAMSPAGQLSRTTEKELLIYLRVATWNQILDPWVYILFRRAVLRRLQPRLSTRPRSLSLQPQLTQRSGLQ
Further: assay procedure not described here.

Chain of 3',5'-cyclic-AMP phosphodiesterase 4A (P27815 whole entry): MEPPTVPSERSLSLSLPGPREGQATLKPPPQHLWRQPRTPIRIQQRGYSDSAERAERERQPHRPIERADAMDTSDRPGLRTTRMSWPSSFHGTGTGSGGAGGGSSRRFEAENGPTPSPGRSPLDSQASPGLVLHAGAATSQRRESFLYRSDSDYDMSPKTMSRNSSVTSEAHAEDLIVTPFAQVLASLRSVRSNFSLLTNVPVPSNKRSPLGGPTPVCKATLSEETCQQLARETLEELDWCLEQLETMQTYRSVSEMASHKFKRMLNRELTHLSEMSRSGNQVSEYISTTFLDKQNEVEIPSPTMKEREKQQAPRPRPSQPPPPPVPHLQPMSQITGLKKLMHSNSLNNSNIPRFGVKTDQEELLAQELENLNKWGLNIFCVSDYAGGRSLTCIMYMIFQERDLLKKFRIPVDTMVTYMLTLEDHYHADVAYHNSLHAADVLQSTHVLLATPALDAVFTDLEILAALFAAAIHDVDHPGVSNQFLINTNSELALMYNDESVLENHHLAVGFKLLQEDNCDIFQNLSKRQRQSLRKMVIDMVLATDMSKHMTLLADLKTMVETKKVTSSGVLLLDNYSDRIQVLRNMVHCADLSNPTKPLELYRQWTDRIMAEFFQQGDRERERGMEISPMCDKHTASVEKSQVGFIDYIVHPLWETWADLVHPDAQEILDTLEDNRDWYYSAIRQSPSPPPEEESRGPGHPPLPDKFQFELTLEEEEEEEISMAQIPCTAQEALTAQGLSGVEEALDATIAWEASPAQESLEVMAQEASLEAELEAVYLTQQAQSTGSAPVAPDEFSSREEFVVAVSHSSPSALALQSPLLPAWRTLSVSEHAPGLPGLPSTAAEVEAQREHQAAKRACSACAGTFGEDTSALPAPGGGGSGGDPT
Chain of Sodium-dependent noradrenaline transporter (P23975 whole entry): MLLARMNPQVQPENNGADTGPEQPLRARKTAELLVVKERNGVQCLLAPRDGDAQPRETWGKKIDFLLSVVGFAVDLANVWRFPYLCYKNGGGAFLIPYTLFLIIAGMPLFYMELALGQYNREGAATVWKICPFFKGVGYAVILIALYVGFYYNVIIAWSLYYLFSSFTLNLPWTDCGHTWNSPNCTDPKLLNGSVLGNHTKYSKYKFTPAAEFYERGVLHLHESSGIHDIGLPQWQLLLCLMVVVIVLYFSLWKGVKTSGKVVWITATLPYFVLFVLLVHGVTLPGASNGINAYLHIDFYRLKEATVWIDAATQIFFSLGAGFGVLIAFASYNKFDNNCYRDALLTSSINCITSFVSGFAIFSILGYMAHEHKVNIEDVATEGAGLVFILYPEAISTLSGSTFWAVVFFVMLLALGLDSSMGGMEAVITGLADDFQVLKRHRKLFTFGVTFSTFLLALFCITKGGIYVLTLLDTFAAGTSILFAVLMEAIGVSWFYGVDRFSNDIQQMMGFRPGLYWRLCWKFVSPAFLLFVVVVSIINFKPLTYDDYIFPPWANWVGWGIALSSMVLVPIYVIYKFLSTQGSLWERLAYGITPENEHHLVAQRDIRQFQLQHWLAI
Chain of Vascular endothelial growth factor receptor 2 (P35968 whole entry): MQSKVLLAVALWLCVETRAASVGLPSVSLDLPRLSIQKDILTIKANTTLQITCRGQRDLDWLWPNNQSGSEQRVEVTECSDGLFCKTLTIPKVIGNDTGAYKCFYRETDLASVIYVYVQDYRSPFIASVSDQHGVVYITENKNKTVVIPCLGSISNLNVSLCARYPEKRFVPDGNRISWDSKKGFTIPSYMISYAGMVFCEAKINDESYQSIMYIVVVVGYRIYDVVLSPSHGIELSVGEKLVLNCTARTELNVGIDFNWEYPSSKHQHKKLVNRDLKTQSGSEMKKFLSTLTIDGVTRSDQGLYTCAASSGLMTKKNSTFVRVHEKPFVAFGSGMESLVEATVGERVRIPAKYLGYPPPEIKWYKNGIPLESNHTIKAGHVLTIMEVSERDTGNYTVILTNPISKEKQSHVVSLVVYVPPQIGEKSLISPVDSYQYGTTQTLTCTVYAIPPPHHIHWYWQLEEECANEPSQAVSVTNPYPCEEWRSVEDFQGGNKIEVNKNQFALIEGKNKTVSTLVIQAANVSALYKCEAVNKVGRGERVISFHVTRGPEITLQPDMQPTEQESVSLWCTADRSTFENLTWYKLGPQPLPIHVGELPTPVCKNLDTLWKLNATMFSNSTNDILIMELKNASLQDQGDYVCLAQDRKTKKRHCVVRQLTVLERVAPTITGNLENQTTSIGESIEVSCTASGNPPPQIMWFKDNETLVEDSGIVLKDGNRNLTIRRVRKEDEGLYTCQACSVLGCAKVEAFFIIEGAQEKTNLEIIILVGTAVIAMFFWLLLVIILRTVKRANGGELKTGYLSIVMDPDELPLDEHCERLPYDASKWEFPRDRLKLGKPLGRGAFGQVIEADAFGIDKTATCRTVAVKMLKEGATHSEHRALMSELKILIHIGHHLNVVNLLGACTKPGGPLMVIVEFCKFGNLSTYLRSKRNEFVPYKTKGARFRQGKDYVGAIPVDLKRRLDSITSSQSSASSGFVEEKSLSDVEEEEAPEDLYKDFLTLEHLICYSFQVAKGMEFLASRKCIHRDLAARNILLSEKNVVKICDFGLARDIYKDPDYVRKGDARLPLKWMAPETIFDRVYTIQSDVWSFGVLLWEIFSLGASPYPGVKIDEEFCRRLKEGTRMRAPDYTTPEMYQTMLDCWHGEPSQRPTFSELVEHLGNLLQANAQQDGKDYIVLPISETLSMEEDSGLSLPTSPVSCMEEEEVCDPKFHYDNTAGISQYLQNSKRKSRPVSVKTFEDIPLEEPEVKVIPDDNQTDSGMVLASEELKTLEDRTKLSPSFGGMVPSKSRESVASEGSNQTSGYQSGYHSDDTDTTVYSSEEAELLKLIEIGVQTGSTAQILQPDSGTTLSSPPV
Chain of Prostaglandin G/H synthase 1 (P23219 whole entry): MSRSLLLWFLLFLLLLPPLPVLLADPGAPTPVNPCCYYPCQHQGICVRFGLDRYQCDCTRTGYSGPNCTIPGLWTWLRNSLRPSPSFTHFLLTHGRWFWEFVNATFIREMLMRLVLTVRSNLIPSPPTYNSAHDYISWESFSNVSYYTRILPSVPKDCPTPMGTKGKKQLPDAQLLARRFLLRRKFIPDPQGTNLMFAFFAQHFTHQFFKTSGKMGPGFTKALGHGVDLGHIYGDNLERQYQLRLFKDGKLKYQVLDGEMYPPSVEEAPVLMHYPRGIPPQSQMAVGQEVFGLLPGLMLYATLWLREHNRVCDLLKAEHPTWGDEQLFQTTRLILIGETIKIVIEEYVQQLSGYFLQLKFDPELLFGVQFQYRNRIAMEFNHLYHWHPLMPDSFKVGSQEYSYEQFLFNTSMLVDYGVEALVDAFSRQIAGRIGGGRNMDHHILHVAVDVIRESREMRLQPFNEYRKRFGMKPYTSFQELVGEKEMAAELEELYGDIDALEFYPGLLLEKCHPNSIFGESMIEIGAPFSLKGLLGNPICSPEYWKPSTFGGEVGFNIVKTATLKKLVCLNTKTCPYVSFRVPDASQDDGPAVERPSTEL

Row | Compound | AC50 [1] [µM] | AC50 [2] [µM] | AC50 [3] [µM] | AC50 [4] [µM] | AC50 [5] [µM] | AC50 [6] [µM] | AC50 [7] [µM] | AC50 [8] [µM]
1 | CCCCC(=O)O[C@H]1CC[C@H]2[C@@H]3CCc4cc(O)ccc4[C@H]3CC[C@]12C [ESTRADIOL VALERATE] | > 30 | 0.0822 | > 30 | > 10 | 0.234 | > 30 | > 30 | 23.1
2 | CCOc1ccc(Cc2nccc3cc(OCC)c(OCC)cc23)cc1OCC [ETHAVERINE] | > 30 | > 30 | > 30 | 0.466 | > 30 | > 10 | > 30 | 14.1
3 | CC(C)(Oc1ccc(C(=O)c2ccc(Cl)cc2)cc1)C(=O)O [FENOFIBRIC ACID] | > 30 | > 30 | > 30 | > 3 | > 30 | > 30 | > 30 | > 30
4 | COC(=O)Nc1nc2cc(C(=O)c3ccc(F)cc3)ccc2[nH]1 [FLUBENDAZOLE] | > 30 | > 30 | 0.386 | > 30 | > 30 | > 30 | > 10 | > 30
5 | CC(C)Cc1ccc(C(C)C(=O)OCc2ccccn2)cc1 (stereo not given) [IBUPROFEN PICONOL] | > 30 | > 30 | > 30 | > 30 | 19.1 | 10.8 | 22.1 | > 30
6 | CN1CCc2c(c3ccccc3n2Cc2ccccc2)C1 [MEBHYDROLIN] | 0.268 | > 30 | > 30 | > 30 | > 30 | > 30 | 8.13 | > 30
7 | Cc1ccc(Cl)c(Nc2ccccc2C(=O)O)c1Cl [MECLOFENAMIC ACID] | > 30 | > 30 | > 30 | 25.5 | > 30 | 0.0171 | > 30 | 20
8 | CC(O)(CC(=O)O)CC(=O)O [MEGLUTOL] | > 30 | > 30 | > 30 | > 30 | > 30 | > 30 | > 30 | 13.8
9 | CC(C)=CCC/C(C)=C/CC/C(C)=C/CC/C(C)=C/CC1=C(C)C(=O)c2ccccc2C1=O [MENATETRENONE] | > 30 | > 30 | > 30 | 8.53 | 13.5 | 0.78 | > 30 | > 30
10 | COCC(=O)O[C@]1(CCN(C)CCCc2nc3ccccc3[nH]2)CCc2cc(F)ccc2[C@@H]1C(C)C [MIBEFRADIL] | 3.85 | > 30 | > 30 | > 30 | > 30 | > 30 | 20.2 | > 3
11 | Oc1ccc(OCc2ccccc2)cc1 [MONOBENZONE] | > 30 | > 30 | > 30 | > 30 | > 30 | 7.88 | 6.96 | > 30
12 | NC(=O)N/N=C/c1ccc([N+](=O)[O-])o1 [NITROFURAZONE] | > 30 | > 30 | > 30 | > 30 | > 30 | > 30 | > 30 | > 30
13 | C[C@@H]1O[C@@H](O[C@H]2C[C@@H](O)[C@]3(CO)[C@H]4[C@H](O)C[C@]5(C)[C@@H](C6=CC(=O)OC6)CC[C@]5(O)[C@@H]4CC[C@]3(O)C2)[C@H](O)[C@H](O)[C@H]1O [OUABAIN] | > 30 | > 30 | > 30 | > 30 | > 30 | > 30 | > 30 | > 30
14 | CC(C)N1CCOC(c2cccc(C(F)(F)F)c2)C1 (stereo not given) [OXAFLOZANE] | 23.5 | > 30 | > 30 | > 30 | > 30 | > 30 | > 30 | > 30
15 | O=C1Nc2ccccc2C1(c1ccc(O)cc1)c1ccc(O)cc1 [OXYPHENISATINE] | 11.9 | > 30 | > 30 | > 30 | > 30 | > 30 | > 30 | > 30
16 | CN1C(C(=O)Nc2ccccn2)=C(OC(=O)/C=C/c2ccccc2)c2ccccc2S1(=O)=O [PIROXICAM CINNAMATE] | > 30 | > 30 | > 30 | > 30 | > 30 | > 30 | > 30 | > 30
17 | Cc1c(C(C)C)c(=O)n(-c2ccccc2)n1C [PROPYPHENAZONE] | > 30 | > 30 | > 30 | > 30 | > 30 | > 30 | > 30 | > 30
18 | Cc1cn(-c2cc(NC(=O)c3ccc(C)c(Nc4nccc(-c5cnccn5)n4)c3)cc(C(F)(F)F)c2)cn1 [RADOTINIB] | > 30 | > 30 | 1.54 | > 30 | > 30 | > 30 | > 30 | > 30
19 | CO[C@H]1/C=C/O[C@@]2(C)Oc3c(C)c(O)c4c(c3C2=O)C2=NC3(CCN(CC(C)C)CC3)NC2=C(NC(=O)/C(C)=C\C=C\[C@H](C)[C@H](O)[C@@H](C)[C@@H](O)[C@@H](C)[C@H](OC(C)=O)[C@@H]1C)C4=O [RIFABUTIN] | > 30 | > 30 | > 30 | > 30 | > 30 | 17.4 | > 30 | > 30
20 | COC(=O)N(C)c1c(N)nc(-c2nn(Cc3ccccc3F)c3ncccc23)nc1N [RIOCIGUAT] | > 30 | > 30 | > 30 | > 30 | > 30 | > 30 | > 30 | > 30
